# Data from patent US10471028B2, “Small molecule efflux pump inhibitors” (UNIVERSITY OF ROCHESTER, priority 2014, dated 2019).
# Where two headings read alike, the source gives them in different places.
# Experiments:
# [1] = tested on: A. baumannii strain 98-37-09; test: MEC determination: potentiation of minocycline toward serum grown A. baumannii; type: cell-based, Acinetobacter baumannii; conditions: for Log-reduction Colony Forming Units (ml^−1): 1×MEC of compound plus minocycline in serum, versus minocycline alone, plating; for MEC: lowest concentration inhibiting growth in 100% human serum with 0.5 μg ml^−1 minocycline, 48 hr
# Procedure: The TimTec ActiProbe-25K diversity-set and Natural Product compound libraries (29,900 compounds total; TimTec, Newark, Del.) were initially screened for putative efflux pump inhibitors by identifying compounds that potentiated the antimicrobial property of a sub-inhibitory concentration of minocycline toward A. baumannii grown in human serum. To do so, A. baumannii strain 98-37-09 was grown for 16 hours in LB medium at 37° C. on a rotary shaker at 225 rpm. Approximately 1×10^5 CFU were then transferred to individual wells of a 96-well round-bottom plate (Corning Costar, Tewksbury, Mass.) containing 100 μL of human serum supplemented with of minocycline (0.5 μg mL^−1; 0.5× minimum inhibitory concentration in serum) and individual members of the Timtec ActiProbe or Natural product library (50 μM). Plates were then incubated at 37° C. for 48 hours. Growth was measured as a function of turbidity. Putative efflux pump inhibitors were identified as compounds that inhibited A. baumannii growth in human serum containing minocycline and were subsequently retested in triplicate, as indicated above. Untreated A. baumannii grown in serum supplemented with minocycline+/−PAβN served as positive and negative controls, respectively. […] Repeat testing in which well constituents were serial diluted and plated on LB agar plates validated that 85 compounds did indeed limit A. baumannii growth in serum supplemented with minocycline, reducing the number of viable colony forming units between 2-6 log cfu in comparison to minocycline alone treated cells.
# The MEC was defined as the lowest concentration of test compound required to inhibit the growth of A. baumannii in serum in the presence of 0.5 μg ml^−1 minocycline. Plating confirmed that addition of 1×MEC of each compound elicited ≥1.9-log reduction in A. baumannii cells grown in serum supplemented with minocycline alone (see Table 1).
# [2] = tested on: A. baumannii strain 98-37-09; test: Cellular accumulation of minocycline (HPLC, triple-quadrupole MS); type: cell-based, Acinetobacter baumannii; conditions: for Minocylcine Per Cell (femtomoles cell^−1): human serum with 0.5 μg mL^−1 minocycline plus test compound (0.5×MEC, 1×MEC), 48 hours
# Procedure: High pressure liquid chromatography and triple-quadrupole mass spectrometry were used to measure the A. baumannii intracellular levels of minocycline during growth in human serum in the absence and presence of each putative efflux pump inhibitor. […] Cultures were incubated for 48 hours with shaking, at which point an aliquot was removed, serially diluted, and plated to determine the number of viable CFU per mixture. The remainder of the cells were pelleted by centrifugation at 900×g at 4° C., washed twice in PBS, mechanically lysed with a FastPrep cell disrupter (MP Biomedicals, Santa Ana, Calif.) for 20 seconds at 5 m s^−1 and the cellular debris was pelleted via centrifugation at 900×g and 4° C. The amount of minocycline present within the supernatant of ruptured cells was measured. Briefly, doxycycline (0.5 μg mL^−1) was first added to each supernatant to serve as an internal control to account for sample-to-sample preparation variability. The supernatant was then combined with acetonitrile (ACN) at a 1:10 ratio and centrifuged at 16,000×g, at 4° C., to collect minocycline and doxycycline. […] residual liquid was evaporated in a speed vacuum for 2 hours at 8,000×g. To quantify the amount of antibiotics retained, sample materials were suspended in 50% acetonitrile, filtered through a 0.2 μm low protein binding hydrophilic membrane (Millipore, Billerica, Mass.) then separated on Shimadzu high performance liquid chromatography instrument (Fisher Scientific) using a BetaBasic C18 reverse phase column (Thermo Scientific). Separation was carried out with two mobile phase solutions consisting of solution (A) water with 0.1% formic acid and solution (B) 100% ACN. The gradient profile of the chromatography runs was as follows: from 0 to 0.1 min 8% solution B, ramp step wise (37% to 60% solution B) from 0.1 to 6.5 min then holding for one minute before ramping down from 60% to 10% from 7.5 to 8 min. This was followed a hold at 10% solution B for one minute. […] The column was equilibrated in 8% solution B at 40° C. and the flow rate was set to 0.2 mL min^−1. Mass spectrometry analysis of fractions was carried out using a Thermo TSQ Quantum Ultra triple quadrupole mass spectrometer (Fisher Scientific). Data were analyzed using Xcalibur software (Thermo Scientific); the following parameters were used to detect minocycline and the internal control doxycycline: 458.208 m/z→282.971 m/z (collision energy=43, tube lens=119) for minocycline and 445.144 m/z→266.900 m/z (collision energy=39, tube lens=127) for doxycycline. Analysis of the raw data was conducted by using the area under the curve calculations with the Genesis algorithm to determine the concentration in each sample. The difference between the peak intensity and the y intercept of pre-established minocycline and doxycycline standard curves was divided by the slope of the standard curve to quantify the amount of minocycline within each sample. The total concentration of minocycline within each cell was calculated by normalizing to the number of cells within each corresponding culture.
# [3] = tested on: human HepG2 cells; test: MTT cell viability (cytotoxicity) assay
# Procedure: To distinguish putatively non-toxic from human cytotoxic compounds, conventional 3-(4,5-dimethylthiazol-2yl)-2,5-diphenyltetrazolium bromide (MTT) cell viability assays (American Type Culture Collection, Manassas, Va.) were performed for each compound of interest at 1× and 4× their MEC. Briefly, human HepG2 cells were grown to approximately 1×10^6 cells per well in Dulbecco's Modified Eagle Media supplemented with 10% fetal bovine serum (Invitrogen, Carlsbad, Calif.) then treated with 1× or 4× the MEC of the indicated […] Cell viability was measured following the addition of the tetrazolium salt (MTT) as per the manufacturer's recommendations; cells challenged with 50 ug ml^−1 Mitomycin C (Sigma Aldrich) and mock-treated cells served as positive and negative controls, respectively.
# [4] = tested on: A. baumannii strain 98-37-09; test: Potentiation of ciprofloxacin toward serum grown A. baumannii; type: cell-based, Acinetobacter baumannii; conditions: 100% human serum, 0.125 μg ml^−1 ciprofloxacin, 1× or 2× MEC, 48 hour, growth inhibition
# From the text: As a means to further prioritize non-toxic compounds of interest based on their therapeutic promise, it was considered that broad spectrum antimicrobial efflux pump inhibitors may be more clinically valuable than narrow-spectrum agents that only potentiate the activity of a limited number of antibiotics or that display activity toward a single bacterial species. […] To do so, 1×10^5 A. baumannii strain 98-37-09 were inoculated into individual wells of microtiter plates containing 100% human serum supplemented with 0.125 μg ml^−1 ciprofloxacin and 0, 1×, or 2× the compound's MEC, as defined by the lowest concentration needed to potentiated minocycline's antimicrobial effects (above). Plates were incubated for 48 hour at which point each compound's ability to potentiate ciprofloxacin was measured, as growth inhibition.
Structure (SMILES),Log-reduction Colony Forming Units (ml^−1) [1] [log],MEC [1] [µg/mL],Minocylcine Per Cell (femtomoles cell^−1) [2] [femtomoles cell^−1],% Viability [3] [%],Potentiate Ciprofloxacin A. baumannii [4],"% Viability ([3]; human, 48 h, 4 ×MEC) [%]","cellular minocycline concentration ([2]; growth in serum (efflux active conditions), minocycline without efflux inhibitor)",HepG2 survival ([3]; minocycline tested alone at 2 μg ml^−1) [%],% Viability ([3]; HepG2 cellular survival at 4×MEC) [%]
O=[N+]([O-])c1cc2c(cc1/C=N/c1ccc(S(=O)(=O)Nc3nccs3)cc1)OCO2 [ST012902],3.71,2,1.1E−05,55.1,,,,,
COC(=O)c1ccc(COc2ccc(-c3nnn[nH]3)cc2)cc1 [ST060272],6.90,32,3.67E−07,85.35,No,,,,
Cc1cc2c(c(=O)o1)C(c1ccc(F)cc1)C(C#N)=C(N)O2 (stereo not drawn) [ST007013],1.95,4,5E−04,80.9,No,,,,
Cc1ccc(C2N(Cc3ccccc3)CCCN2Cc2ccccc2)o1 [ST048001],7.06,32,1.99E−04,82.72,No,,,,
COc1cc(/C=N/NC(=O)c2sc3ccccc3c2Cl)cc(OC)c1OC [ST033346],2.00,2,3.615E−07,74.67,,,,,
C/C(=N\NC(=O)c1ccccc1F)c1ccccc1O [ST033061],2.18,2,1.96E−04,77.58,No,,,,
CCOc1ccccc1C(=O)Nc1sc2c(c1C(=O)OC(C)C)CCCC2 [ST009896],2.45,2,3.99E−05,73.54,,,,,
COc1ccc(O)c(/C=N/N=C/c2cc(OC)ccc2O)c1 [ST020959],6.90,2,1.27E−04,,,51.04,,,
O=C(c1ccc(Cl)cc1Cl)n1cc([N+](=O)[O-])cn1 [ST033231],1.91,32,3.42E−06,70.87,,,,,
NS(=O)(=O)c1ccc(/N=C/c2ccc(F)cc2)cc1 [ST009698],6.45,64,1.52E−05,73.56,,,,,
"CN(C)c1ccc(O)c2c1C[C@H]1C[C@H]3[C@H](N(C)C)C(O)=C(C(N)=O)C(=O)[C@@]3(O)C(O)=C1C2=O [minocycline, reference compound]",,,,,,,1.58×10^−10 femtomoles per bacterial cell,77.9,
Cc1nnc(SCC2=C(C(=O)[O-])N3C(=O)[C@@H](NC(=O)Cn4cnnn4)[C@H]3SC2)s1.[Na+] [ST024775],4.84,16,1.72E−05,,,,,,41.62
COc1ccc(/C=N/c2ccc(S(N)(=O)=O)cc2)c(OC)c1 [ST016442],3.88,2,1.96E−04,53.43,,,,,
CCOc1ccc(/C=N/c2ccc(S(N)(=O)=O)cc2)cc1 [ST009694],6.24,4,6.8E−07,74.6,,,,,
O=[N+]([O-])c1cccc(/C=N/c2ccc(S(=O)(=O)Nc3nccs3)cc2)c1 [ST012961],6.23,32,1.13E−04,59.32,,,,,
NS(=O)(=O)c1ccc(/N=C/c2ccc(Br)cc2)cc1 [ST009699],6.84,2,1.15E−04,70.45,,,,,
CC1CCN(Cc2cc(Cl)c3cccnc3c2O)CC1 [ST007924],2.42,4,5.12E−05,67.45,,,,,
COc1ccc(OC)c(/C=N/c2ccc(S(N)(=O)=O)cc2)c1 [ST016443],2.00,2,4.4E−04,57.49,,,,,
CCc1ccc(/C=N/c2ccc(S(N)(=O)=O)cc2)cc1 [ST016444],4.86,16,2.02E−05,53.92,,,,,
c1ccc(CN2CCN(Cc3ccccc3)C2c2cccs2)cc1 [ST007852],4.21,4,5.9E−05,65.77,,,,,
O=C(c1ccc([N+](=O)[O-])cc1Cl)N1CCCc2ccccc21 [ST011123],2.83,32,1.19E−05,67.89,,,,,
CC(=O)NS(=O)(=O)c1ccc(N)cc1 [ST040724],4.08,64,1.45E−04,,No,,,,
